Where two headings read alike, the source gives them in different places.
Assays:
FER = FER (Homo sapiens, UniProt P16591); assay: Tyrosine kinase inhibition assay; type: biochemical; details: for IC50: read-out: IC50 of compound; for inhibition at 1 µM: single concentration 1.0 μM, read-out: percent inhibition
Procedure: (§1) Tyrosine kinase inhibition assays were performed at ThermoFisher Life Technologies (Madison, WI, USA) using standard protocols (SelectScreen Biochemical Profiling Service, Thermo Fisher Scientific). ATP concentrations used were at the apparent Km. Test compounds were screened in 1% dimethylsulffoxide (DMSO) (final concentration) in the well. For 10-point titrations, 3-fold serial dilutions were conducted from the starting concentration of […]. All Peptide/Kinase Mixtures were diluted to a 2× working concentration in the appropriate Kinase Buffer. All ATP Solutions were diluted to a 4× working concentration in Kinase Buffer (50 mM HEPES pH 7.5, 0.01% BRIJ-35, 10 mM MgCl2, 1 mM EGTA). The apparent ATP Km was previously determined using a Z′-LYTE assay. The Development Reagent was diluted in Development Buffer.
(§2) The inhibition activities of compounds were determined in biochemical assays using single concentration (1.0 μM) measurements. The results were provided as percent inhibition values. A compound displaying a percent inhibition value of greater 80% was defined as a hit. 99 different tyrosine kinases were used.

LYN A = LYN A (Homo sapiens, UniProt P07948); assay: Tyrosine kinase inhibition assay; type: biochemical; details: for IC50: read-out: IC50 of compound; for inhibition at 1 µM: single concentration 1.0 μM, read-out: percent inhibition
Procedure: as §1, §2

EPHA2 = EPHA2 (Homo sapiens, UniProt P29317); assay: Tyrosine kinase inhibition assay; type: biochemical; details: for IC50: read-out: IC50 of compound; for inhibition at 1 µM: single concentration 1.0 μM, read-out: percent inhibition
Procedure: as §1, §2

ROS1 = ROS1 (Homo sapiens, UniProt P08922); assay: Tyrosine kinase inhibition assay; type: biochemical; details: for IC50: read-out: IC50 of compound; for inhibition at 1 µM: single concentration 1.0 μM, read-out: percent inhibition
Procedure: as §1, §2

NTRK2 (TRKB) = NTRK2 (TRKB) (Homo sapiens, UniProt Q16620); assay: Tyrosine kinase inhibition assay; type: biochemical; details: for inhibition at 1 µM: single concentration 1.0 μM, read-out: percent inhibition
Sequence of NTRK2 (TRKB) (Q16620 32-822): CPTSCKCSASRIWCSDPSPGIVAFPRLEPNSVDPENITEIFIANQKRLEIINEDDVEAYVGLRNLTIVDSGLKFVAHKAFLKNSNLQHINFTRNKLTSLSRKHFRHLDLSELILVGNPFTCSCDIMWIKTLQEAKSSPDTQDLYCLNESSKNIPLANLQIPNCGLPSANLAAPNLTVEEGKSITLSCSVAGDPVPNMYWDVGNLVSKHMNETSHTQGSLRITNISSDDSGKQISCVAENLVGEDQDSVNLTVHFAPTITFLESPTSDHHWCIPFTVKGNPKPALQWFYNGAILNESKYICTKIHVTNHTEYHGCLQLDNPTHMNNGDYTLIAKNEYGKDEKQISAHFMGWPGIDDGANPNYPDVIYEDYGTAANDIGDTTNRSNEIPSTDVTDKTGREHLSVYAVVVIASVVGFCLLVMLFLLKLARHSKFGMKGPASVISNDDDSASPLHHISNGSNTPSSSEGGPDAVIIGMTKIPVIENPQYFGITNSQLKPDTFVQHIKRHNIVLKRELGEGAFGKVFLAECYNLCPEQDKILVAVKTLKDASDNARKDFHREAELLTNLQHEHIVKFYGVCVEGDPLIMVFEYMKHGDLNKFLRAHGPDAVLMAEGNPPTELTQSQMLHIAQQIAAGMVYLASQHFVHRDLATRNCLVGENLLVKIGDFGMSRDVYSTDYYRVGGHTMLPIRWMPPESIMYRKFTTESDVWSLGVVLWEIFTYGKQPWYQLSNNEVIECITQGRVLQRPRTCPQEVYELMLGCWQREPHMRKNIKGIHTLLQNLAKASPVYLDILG
Procedure: as §1, §2

INSRR (IRR) = INSRR (IRR) (Homo sapiens, UniProt P14616); assay: Tyrosine kinase inhibition assay; type: biochemical; details: for IC50: read-out: IC50 of compound; for inhibition at 1 µM: single concentration 1.0 μM, read-out: percent inhibition
Procedure: as §1, §2

BTK = BTK (Homo sapiens, UniProt Q06187); assay: Tyrosine kinase inhibition assay; type: biochemical; details: for IC50: read-out: IC50 of compound; for inhibition at 1 µM: single concentration 1.0 μM, read-out: percent inhibition
Procedure: as §1, §2

PDGFRA (PDGFR alpha) = PDGFRA (PDGFR alpha) (Homo sapiens, UniProt P16234); assay: Tyrosine kinase inhibition assay; type: biochemical; details: for IC50: read-out: IC50 of compound; for inhibition at 1 µM: single concentration 1.0 μM, read-out: percent inhibition
Sequence of PDGFRA (PDGFR alpha) (P16234 24-1089): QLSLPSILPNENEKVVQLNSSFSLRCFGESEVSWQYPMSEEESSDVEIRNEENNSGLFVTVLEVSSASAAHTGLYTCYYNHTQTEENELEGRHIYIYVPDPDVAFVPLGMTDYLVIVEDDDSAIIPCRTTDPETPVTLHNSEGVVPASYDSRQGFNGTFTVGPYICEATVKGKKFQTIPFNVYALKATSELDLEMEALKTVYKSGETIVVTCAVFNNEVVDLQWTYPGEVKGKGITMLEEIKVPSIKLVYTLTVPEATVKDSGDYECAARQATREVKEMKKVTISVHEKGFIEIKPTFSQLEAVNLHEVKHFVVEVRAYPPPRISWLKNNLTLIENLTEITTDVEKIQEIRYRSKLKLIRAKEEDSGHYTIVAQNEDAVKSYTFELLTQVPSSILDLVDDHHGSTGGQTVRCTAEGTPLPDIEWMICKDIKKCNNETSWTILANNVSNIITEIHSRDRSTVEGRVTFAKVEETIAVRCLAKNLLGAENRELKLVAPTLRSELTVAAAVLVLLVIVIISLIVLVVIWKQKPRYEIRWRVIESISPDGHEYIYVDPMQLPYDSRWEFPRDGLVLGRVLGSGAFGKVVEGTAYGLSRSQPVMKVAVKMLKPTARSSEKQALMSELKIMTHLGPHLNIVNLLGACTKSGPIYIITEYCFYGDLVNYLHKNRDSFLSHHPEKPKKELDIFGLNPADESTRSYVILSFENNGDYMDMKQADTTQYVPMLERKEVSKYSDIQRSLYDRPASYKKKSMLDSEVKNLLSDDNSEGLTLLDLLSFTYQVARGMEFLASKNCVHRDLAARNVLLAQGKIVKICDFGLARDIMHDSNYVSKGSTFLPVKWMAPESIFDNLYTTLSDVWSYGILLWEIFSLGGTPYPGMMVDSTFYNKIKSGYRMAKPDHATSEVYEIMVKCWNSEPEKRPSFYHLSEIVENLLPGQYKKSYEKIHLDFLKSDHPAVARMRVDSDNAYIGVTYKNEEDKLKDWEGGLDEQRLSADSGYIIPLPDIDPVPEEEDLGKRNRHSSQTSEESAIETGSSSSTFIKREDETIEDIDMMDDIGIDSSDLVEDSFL
Procedure: as §1, §2

LCK = LCK (Homo sapiens, UniProt P06239); assay: Tyrosine kinase inhibition assay; type: biochemical; details: for IC50: read-out: IC50 of compound; for inhibition at 1 µM: single concentration 1.0 μM, read-out: percent inhibition
Sequence of LCK (P06239 whole entry): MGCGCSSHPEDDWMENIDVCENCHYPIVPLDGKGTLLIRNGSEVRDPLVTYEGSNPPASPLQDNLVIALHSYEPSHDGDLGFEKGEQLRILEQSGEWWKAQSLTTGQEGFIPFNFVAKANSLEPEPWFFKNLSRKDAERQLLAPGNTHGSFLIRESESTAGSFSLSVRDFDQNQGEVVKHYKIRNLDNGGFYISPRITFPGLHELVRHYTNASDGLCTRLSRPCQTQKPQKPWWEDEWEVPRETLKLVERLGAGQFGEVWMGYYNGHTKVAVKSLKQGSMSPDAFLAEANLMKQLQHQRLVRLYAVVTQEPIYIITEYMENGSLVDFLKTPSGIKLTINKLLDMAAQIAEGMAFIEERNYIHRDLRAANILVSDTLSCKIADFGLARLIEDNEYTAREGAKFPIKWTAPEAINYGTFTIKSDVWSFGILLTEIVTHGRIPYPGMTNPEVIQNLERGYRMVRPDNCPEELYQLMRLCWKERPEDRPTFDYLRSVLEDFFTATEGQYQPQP
Procedure: as §1, §2

SRC = SRC (Homo sapiens, UniProt P12931); assay: Tyrosine kinase inhibition assay; type: biochemical; details: for IC50: read-out: IC50 of compound; for inhibition at 1 µM: single concentration 1.0 μM, read-out: percent inhibition
Procedure: as §1, §2

FGR = FGR (Homo sapiens, UniProt P09769); assay: Tyrosine kinase inhibition assay; type: biochemical; details: for IC50: read-out: IC50 of compound; for inhibition at 1 µM: single concentration 1.0 μM, read-out: percent inhibition
Procedure: as §1, §2

FLT4 (VEGFR3) = FLT4 (VEGFR3) (Homo sapiens, UniProt P35916); assay: Tyrosine kinase inhibition assay; type: biochemical; details: for IC50: read-out: IC50 of compound; for inhibition at 1 µM: single concentration 1.0 μM, read-out: percent inhibition
Sequence of FLT4 (VEGFR3) (P35916 25-1363): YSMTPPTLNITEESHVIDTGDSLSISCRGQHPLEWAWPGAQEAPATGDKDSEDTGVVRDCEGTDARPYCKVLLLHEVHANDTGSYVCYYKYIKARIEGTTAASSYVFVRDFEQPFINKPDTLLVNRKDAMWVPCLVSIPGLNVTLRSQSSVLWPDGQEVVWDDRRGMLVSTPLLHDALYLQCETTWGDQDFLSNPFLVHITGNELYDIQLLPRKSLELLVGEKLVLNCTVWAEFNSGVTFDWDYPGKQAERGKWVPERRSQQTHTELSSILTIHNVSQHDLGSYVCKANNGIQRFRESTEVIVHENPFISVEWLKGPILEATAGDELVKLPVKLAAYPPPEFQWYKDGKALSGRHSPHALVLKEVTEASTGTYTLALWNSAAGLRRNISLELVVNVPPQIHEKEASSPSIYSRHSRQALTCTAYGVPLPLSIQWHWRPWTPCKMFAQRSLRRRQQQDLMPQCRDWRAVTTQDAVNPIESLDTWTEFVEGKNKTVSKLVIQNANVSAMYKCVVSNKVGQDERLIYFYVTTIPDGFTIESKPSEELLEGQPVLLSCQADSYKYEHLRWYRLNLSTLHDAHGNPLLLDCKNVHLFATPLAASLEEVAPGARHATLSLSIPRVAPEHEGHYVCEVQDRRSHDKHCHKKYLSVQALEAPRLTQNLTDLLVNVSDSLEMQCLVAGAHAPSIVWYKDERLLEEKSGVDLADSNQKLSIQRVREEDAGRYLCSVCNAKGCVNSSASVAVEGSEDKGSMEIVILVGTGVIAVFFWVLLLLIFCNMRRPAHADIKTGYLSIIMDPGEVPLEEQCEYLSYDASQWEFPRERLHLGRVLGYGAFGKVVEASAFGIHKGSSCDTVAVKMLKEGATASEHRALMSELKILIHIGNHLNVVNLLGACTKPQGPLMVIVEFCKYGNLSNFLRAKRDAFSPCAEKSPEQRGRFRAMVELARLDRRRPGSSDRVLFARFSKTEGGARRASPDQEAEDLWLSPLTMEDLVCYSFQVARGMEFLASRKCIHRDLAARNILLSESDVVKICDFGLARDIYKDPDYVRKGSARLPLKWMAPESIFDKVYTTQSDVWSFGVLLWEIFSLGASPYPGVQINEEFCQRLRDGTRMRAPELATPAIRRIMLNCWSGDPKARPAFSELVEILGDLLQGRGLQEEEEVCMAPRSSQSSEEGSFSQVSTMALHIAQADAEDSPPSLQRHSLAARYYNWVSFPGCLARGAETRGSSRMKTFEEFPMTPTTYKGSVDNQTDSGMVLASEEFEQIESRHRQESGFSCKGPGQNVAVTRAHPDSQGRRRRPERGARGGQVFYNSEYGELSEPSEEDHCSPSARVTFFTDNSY
Procedure: as §1, §2

HCK = HCK (Homo sapiens, UniProt P08631); assay: Tyrosine kinase inhibition assay; type: biochemical; details: for IC50: read-out: IC50 of compound; for inhibition at 1 µM: single concentration 1.0 μM, read-out: percent inhibition
Procedure: as §1, §2

LYN B = LYN B (Homo sapiens, UniProt P07948); assay: Tyrosine kinase inhibition assay; type: biochemical; details: for inhibition at 1 µM: single concentration 1.0 μM, read-out: percent inhibition
Sequence of LYN B (P07948 1-491 isoform P07948-2): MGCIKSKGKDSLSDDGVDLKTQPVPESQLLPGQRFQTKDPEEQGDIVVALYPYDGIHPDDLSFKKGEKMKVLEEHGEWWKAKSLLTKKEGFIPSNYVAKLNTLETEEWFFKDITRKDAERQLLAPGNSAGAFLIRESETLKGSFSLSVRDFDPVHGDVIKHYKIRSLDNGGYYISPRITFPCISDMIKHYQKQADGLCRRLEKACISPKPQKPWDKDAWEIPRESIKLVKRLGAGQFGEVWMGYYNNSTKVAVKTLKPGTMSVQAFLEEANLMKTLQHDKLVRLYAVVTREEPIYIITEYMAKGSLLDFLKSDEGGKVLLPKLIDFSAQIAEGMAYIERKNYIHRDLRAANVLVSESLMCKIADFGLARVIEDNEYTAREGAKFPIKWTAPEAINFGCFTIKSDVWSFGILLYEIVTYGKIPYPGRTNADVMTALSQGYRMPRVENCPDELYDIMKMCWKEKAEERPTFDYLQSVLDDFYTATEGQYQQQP
Procedure: as §1, §2

CT-26 cells = assay: In vitro cytotoxicity assay (MTT, 72 h); type: cell-based, murine; details: Mus musculus, CT26, growth inhibition
Procedure: Six different cell lines were used, including human breast cancer cell lines MDA-MB-231 (6×10^3) and MDA-MB-453 (2.4×10^4), human colorectal cell line SW48 (2.4×10^4), human breast epithelial cell line M10 (6×10^3), human cancer cell line A549 (1.4×10^3), and murine colorectal carcinoma tumors CT26 (6×10^3), which were seeded in a 96-well plate. […] After 72 h, MTT assay (Cayman™) was used to determine the cellular viability.

FLT3 = target: T1, FLT3 (Homo sapiens, UniProt P36888); assay: Tyrosine kinase inhibition assay; type: biochemical; details: for inhibition at 1 µM: single concentration 1.0 μM, read-out: percent inhibition
T1 sequence (P36888 27-993): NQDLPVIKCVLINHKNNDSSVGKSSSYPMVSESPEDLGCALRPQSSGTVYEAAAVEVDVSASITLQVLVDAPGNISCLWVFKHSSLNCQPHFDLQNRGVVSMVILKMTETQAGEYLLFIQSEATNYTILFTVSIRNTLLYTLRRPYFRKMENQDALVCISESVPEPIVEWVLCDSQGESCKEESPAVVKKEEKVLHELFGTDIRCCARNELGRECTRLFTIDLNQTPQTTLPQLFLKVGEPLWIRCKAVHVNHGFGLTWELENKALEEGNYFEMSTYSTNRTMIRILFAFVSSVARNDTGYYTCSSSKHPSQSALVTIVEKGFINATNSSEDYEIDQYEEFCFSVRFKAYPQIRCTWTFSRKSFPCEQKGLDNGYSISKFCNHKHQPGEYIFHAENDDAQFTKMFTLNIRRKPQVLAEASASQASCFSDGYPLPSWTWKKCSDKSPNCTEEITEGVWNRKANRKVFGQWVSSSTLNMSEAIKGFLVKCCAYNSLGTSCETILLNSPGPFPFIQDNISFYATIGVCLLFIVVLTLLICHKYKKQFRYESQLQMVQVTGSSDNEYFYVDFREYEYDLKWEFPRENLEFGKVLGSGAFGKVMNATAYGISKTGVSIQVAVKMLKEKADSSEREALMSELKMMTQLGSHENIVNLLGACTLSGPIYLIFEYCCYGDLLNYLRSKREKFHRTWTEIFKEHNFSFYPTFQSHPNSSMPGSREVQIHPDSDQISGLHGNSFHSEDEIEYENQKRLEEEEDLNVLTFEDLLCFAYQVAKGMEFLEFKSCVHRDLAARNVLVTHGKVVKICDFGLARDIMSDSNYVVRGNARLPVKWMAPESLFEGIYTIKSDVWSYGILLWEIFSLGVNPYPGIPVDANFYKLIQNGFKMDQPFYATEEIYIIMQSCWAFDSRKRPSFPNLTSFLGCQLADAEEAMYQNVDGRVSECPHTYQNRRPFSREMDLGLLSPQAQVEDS
Procedure: as §1
(§3) The inhibition activities of compounds were determined in biochemical assays using single concentration (1.0 μM) measurements. The results were provided as percent inhibition values. […] 99 different tyrosine kinases were used.

TEK (Tie2) = TEK (Tie2) (Homo sapiens, UniProt Q02763); assay: Tyrosine kinase inhibition assay; type: biochemical; details: for inhibition at 1 µM: single concentration 1.0 μM, read-out: percent inhibition
Procedure: as §1, §3

Sequence of FER (P16591 whole entry): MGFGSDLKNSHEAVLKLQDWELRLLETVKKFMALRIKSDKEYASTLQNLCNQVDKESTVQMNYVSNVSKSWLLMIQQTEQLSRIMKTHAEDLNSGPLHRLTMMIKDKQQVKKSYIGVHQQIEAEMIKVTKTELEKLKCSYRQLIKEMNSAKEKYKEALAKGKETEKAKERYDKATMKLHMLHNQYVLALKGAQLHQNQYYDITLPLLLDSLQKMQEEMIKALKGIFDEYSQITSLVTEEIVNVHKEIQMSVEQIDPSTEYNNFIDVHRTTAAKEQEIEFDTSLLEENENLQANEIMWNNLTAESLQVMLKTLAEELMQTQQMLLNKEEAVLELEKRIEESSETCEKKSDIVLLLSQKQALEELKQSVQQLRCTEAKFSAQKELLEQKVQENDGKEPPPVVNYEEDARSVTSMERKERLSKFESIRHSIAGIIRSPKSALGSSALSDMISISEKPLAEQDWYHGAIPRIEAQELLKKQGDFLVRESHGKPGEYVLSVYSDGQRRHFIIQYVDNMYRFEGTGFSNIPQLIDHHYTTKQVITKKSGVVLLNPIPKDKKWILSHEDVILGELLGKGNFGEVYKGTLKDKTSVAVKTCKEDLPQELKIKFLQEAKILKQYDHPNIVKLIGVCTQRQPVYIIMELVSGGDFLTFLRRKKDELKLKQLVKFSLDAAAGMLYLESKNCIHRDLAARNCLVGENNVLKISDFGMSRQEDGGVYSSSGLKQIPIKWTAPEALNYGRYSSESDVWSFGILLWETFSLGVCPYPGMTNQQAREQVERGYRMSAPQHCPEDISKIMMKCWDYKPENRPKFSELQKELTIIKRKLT

Row | SMILES | IC50 (FER) | IC50 (LYN A) | IC50 (EPHA2) | IC50 (ROS1) | IC50 (INSRR (IRR)) | IC50 (BTK) | IC50 (PDGFRA (PDGFR alpha)) | IC50 (LCK) | IC50 (SRC) | IC50 (FGR) | IC50 (FLT4 (VEGFR3)) | IC50 (HCK) | IC50 (CT-26 cells) | inhibition at 1 µM (FER) | inhibition at 1 µM (LYN A) | inhibition at 1 µM (EPHA2) | inhibition at 1 µM (ROS1) | inhibition at 1 µM (NTRK2 (TRKB); NTRK2 (TRKB)) | inhibition at 1 µM (INSRR (IRR)) | inhibition at 1 µM (BTK) | also measured
1 | CNC(=O)c1cc2c(Oc3ccc(NC(=O)C4(C(=O)Nc5ccc(F)cc5)CC4)cc3)ccnc2cc1OC [Zanzalintinib, reference compound] | 266 nM | 70.9 nM | 52.2 nM | 71.4 nM | 302 nM | 111 nM | 93.9 nM | 7.07 nM | 45.1 nM | 35.4 nM | 21.7 nM | 59 nM | 22000 ± 290 nM |  |  |  |  |  |  |  | IC50 (NTRK2 (TRKB); NTRK2 (TRKB), read-out: IC50 of compound): 112 nM; IC50 (LYN B; LYN B, read-out: IC50 of compound): 30.7 nM; IC50 (FLT3; read-out: IC50 of compound): 5.43 nM; IC50 (TEK (Tie2); read-out: IC50 of compound): 150 nM
2 | COc1cc2nccc(Oc3ccc(NC(=O)C4(NC(=O)c5ccc(F)cc5)CC4)cc3F)c2cc1Oc1c(F)cc(N)cc1F [Cbo-14] |  |  |  |  |  |  |  |  |  |  |  |  | 4900 ± 110 nM | 99% | 86% | 61% | 97% | 88% | 93% | 101% | inhibition at 1 µM (PDGFRA (PDGFR alpha)): 94%; inhibition at 1 µM (LCK): 97%; inhibition at 1 µM (SRC): 86%; inhibition at 1 µM (FGR): 92%; inhibition at 1 µM (FLT4 (VEGFR3)): 92%; inhibition at 1 µM (HCK): 74%; inhibition at 1 µM (LYN B; LYN B): 87%; inhibition at 1 µM (FLT3): 81%; inhibition at 1 µM (TEK (Tie2)): 90%
3 | COc1cc2nccc(Oc3ccc(NC(=O)C4(C(=O)Nc5ccc(F)cc5)CC4)cc3)c2cc1OC [Cabozantinib, reference compound] | 424 nM | 217 nM | 37.7 nM | 60.6 nM | 386 nM | 172 nM | 84.1 nM | 38.1 nM | 141 nM | 88.8 nM | 30.3 nM | 111 nM | 19600 ± 4300 nM | 89% | 92% | 95% | 87% | 95% | 38% | 82% | IC50 (NTRK2 (TRKB)): 53.3 nM; inhibition at 1 µM (PDGFRA (PDGFR alpha)): 92%; inhibition at 1 µM (LCK): 95%; inhibition at 1 µM (SRC): 89%; inhibition at 1 µM (FGR): 97%; inhibition at 1 µM (FLT4 (VEGFR3)): 95%; inhibition at 1 µM (HCK): 90%; IC50 (LYN B): 67.7 nM; inhibition at 1 µM (LYN B; LYN B): 91%; inhibition at 1 µM (FLT3): 90%; inhibition at 1 µM (TEK (Tie2)): 89%
